From ChEMBL document CHEMBL1201862, “PubChem BioAssay data set” (2004)
Activity calls are given as the source filed them.

Tests used:
[1] = target: Hepatocyte nuclear factor 4-alpha (Homo sapiens, UniProt P41235); format: functional, cell-based;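 also: biochemical luminescence-based dose-response counterscreen measuring inhibition of HNF4 dimerization, run alongside a screen for blockers of ABHD5–perilipin-5 interaction; split luciferase complementation of HNF4 fusion proteins in cell lysate measuring dimerization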
Chain of Hepatocyte nuclear factor 4-alpha (P41235 whole entry, the tested form may be a part): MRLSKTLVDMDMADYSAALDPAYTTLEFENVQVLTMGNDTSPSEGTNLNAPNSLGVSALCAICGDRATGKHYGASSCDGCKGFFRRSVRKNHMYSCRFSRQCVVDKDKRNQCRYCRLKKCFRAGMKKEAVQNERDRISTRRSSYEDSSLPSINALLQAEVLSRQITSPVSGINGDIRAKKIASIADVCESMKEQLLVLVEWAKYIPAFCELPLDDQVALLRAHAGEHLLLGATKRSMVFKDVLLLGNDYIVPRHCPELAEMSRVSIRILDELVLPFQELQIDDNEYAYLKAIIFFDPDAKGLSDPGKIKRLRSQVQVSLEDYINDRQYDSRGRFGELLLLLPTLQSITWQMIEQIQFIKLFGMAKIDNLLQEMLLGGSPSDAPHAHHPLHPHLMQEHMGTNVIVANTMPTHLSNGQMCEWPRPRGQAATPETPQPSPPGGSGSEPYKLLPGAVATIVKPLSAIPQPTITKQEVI

[2] = target: Luciferin 4-monooxygenase (Photinus pyralis, UniProt P08659); experiment: Counter Screen for Luciferase-based Assay Positives. [Related pubchem assays: 620, 618, 411 ]
Chain of Luciferin 4-monooxygenase (P08659 whole entry): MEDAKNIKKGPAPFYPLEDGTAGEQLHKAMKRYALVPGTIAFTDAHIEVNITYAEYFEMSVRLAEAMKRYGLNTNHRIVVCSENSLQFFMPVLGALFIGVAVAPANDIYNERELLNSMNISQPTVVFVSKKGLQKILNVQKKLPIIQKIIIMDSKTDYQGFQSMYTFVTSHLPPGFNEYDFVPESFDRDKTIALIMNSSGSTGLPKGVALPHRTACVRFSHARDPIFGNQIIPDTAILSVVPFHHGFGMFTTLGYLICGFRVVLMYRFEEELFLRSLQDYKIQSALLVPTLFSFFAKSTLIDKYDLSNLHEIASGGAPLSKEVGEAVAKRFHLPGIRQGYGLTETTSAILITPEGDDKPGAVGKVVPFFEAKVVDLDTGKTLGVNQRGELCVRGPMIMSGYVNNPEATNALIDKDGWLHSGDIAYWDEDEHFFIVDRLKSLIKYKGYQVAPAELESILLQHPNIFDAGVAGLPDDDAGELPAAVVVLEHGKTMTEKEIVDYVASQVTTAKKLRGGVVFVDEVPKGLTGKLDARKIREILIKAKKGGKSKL

[3] = inhibitors of intracellular T. cruzi replication, confirmation, NIH3T3 host cells, beta-gal luminescence (AID 2044); format: functional, cell-based;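 also: intracellular parasites grown in NIH/3T3 mouse fibroblasts as host cells; luminescent beta-galactosidase reporter signal from transgenic T. cruzi replicating inside host cells; inhibitors lower the luminescence signal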
[4] = growth suppression of beta-catenin-knockout colon cells, dose response, cell-based, HCT116, human colon tumor (AID 1045); format: functional;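 also: HCT116 colon tumor cells with beta catenin knocked out; cells exposed to compound for 60 hours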
[5] = cytotoxicity in HEK-293T cells, dose response, cytotoxicity control for BCR NF-kB inhibitor project, luminescence, B-cell screen hits (AID 489021); format: functional, cell-based;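 also: HEK-293T cells carrying an NF-kB luciferase reporter; cells exposed to compound for about 14 hours before viability readout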
[6] = cytotoxicity toward NIH3T3 fibroblasts, dose response, counter-screen, cell-based, ATP luminescence, mouse fibroblasts (AID 2010); format: functional;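 also: cells exposed to compound for about 90 hours before reading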
[7] = target: FAD-linked sulfhydryl oxidase ALR (Homo sapiens, UniProt P55789); experiment: inhibitors of human ALR sulfhydryl oxidase, dose response, biochemical, H2O2 detection, luminescence, cherry-pick (AID 493248)
Chain of FAD-linked sulfhydryl oxidase ALR (P55789 whole entry): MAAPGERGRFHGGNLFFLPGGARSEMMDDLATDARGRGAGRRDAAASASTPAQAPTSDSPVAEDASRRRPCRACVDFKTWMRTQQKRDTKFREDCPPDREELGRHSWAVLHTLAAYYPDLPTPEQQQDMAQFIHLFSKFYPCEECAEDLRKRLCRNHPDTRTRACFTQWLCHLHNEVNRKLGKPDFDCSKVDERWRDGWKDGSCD

[8] = target: Glucose-6-phosphate 1-dehydrogenase (Homo sapiens, UniProt P11413); experiment: human G6PD enzyme inhibitors, dose response, selectivity assay for P. falciparum G6PD inhibitor project, biochemical, fluorescence (AID 504792); format: functional
Chain of Glucose-6-phosphate 1-dehydrogenase (P11413 whole entry): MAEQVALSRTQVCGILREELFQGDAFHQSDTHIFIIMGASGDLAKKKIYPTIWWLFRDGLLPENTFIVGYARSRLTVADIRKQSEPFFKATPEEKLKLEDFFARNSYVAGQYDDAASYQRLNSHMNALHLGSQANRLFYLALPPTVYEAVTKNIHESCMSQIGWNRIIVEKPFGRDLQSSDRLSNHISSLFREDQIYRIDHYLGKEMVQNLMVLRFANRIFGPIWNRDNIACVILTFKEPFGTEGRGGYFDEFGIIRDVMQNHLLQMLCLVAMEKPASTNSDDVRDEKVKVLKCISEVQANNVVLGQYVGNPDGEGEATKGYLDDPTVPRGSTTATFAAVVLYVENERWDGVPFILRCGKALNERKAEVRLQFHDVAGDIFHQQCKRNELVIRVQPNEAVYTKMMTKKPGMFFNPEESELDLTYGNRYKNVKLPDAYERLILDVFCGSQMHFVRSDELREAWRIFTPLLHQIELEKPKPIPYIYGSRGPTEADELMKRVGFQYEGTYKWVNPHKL

[9] = cytotoxicity in HPDE-C7 cells, cell-based, fluorescence, HTS (AID 430); format: functional; settings: Homo sapiens
[10] = tested on: HT-1080; experiment: cytotoxicity in HT1080 fibrosarcoma cells, cell-based, fluorescence readout (AID 620); format: functional; settings: Homo sapiens
[11] = cytotoxicity in KRAS-transformed pancreatic duct cells, primary screen, cell-based, fluorescence, HTS (AID 431); format: functional; settings: Homo sapiens;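 also: cell line used: HPDE-C7K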
[12] = growth suppression of PTEN-null colon cells, dose response, cell-based, HCT116 PTEN knockout (AID 1047); format: functional;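 also: HCT116 colon tumor cells with PTEN knocked out; cells exposed to compound for 60 hours before readout; potency for loss of cell viability measured by luminescence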
[13] = target: T1, Methionyl-tRNA synthetase, putative (Trypanosoma brucei brucei, UniProt Q38C91); format: functional, Trypanosoma brucei brucei strain 927/4 GUTat10.1
T1 sequence (Q38C91 whole entry): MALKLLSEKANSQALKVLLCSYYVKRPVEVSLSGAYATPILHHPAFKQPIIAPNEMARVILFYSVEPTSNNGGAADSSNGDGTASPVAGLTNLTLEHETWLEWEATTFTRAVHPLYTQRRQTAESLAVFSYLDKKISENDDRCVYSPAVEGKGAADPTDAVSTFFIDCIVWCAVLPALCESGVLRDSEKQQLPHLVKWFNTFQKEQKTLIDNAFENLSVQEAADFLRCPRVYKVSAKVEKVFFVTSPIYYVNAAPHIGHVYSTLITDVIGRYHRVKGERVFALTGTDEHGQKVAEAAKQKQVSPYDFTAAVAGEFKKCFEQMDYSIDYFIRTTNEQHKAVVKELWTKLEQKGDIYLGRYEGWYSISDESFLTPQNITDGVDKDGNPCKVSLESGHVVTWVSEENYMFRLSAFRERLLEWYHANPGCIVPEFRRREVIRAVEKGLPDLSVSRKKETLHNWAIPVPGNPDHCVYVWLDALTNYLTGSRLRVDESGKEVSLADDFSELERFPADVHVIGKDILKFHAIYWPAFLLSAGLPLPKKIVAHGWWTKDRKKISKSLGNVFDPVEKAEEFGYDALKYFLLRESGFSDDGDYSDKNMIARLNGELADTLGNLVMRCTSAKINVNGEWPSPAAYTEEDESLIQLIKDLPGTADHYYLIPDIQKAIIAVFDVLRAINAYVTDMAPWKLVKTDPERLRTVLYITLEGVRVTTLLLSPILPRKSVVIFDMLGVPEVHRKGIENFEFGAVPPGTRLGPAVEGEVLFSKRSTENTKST

[14] = target: T1, Methionyl-tRNA synthetase, putative; format: functional, Trypanosoma brucei brucei strain 927/4 GUTat10.1; remark: listed apart in the source
[15] = Counterscreen for inhibitors of Trypanosoma brucei methionyl tRNA synthetase (MetRS): Luminescence-based cell-based high throughput dose response assay to identify compounds that are cytotoxic to Jurkat human T lymphocyte cells.; format: functional
[16] = target: T2, Beta-lactamase (Pseudomonas aeruginosa, UniProt Q79MP6); experiment: […] counterscreen for selective VIM-2 inhibitors: dose response biochemical high throughput screening assay to identify inhibitors of IMP-1 metallo-beta-lactamase.
T2 sequence (Q79MP6 whole entry): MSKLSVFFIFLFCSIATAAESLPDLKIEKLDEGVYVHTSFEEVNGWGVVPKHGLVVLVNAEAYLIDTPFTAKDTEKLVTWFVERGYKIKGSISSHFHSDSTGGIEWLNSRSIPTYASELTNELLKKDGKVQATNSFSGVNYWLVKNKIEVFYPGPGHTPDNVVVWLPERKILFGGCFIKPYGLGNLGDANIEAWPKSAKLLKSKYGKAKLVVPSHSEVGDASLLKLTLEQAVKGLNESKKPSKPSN

[17] = target: Beta-lactamase (Salmonella choleraesuis (strain SC-B67), UniProt Q5J463); experiment: Epi-absorbance-based counterscreen for selective VIM-2 inhibitors: dose response biochemical high throughput screening assay to identify inhibitors of TEM-1 serine-beta-lactamase.
Chain of Beta-lactamase (Salmonella choleraesuis (strain SC-B67), UniProt Q5J463) (Q5J463 whole entry): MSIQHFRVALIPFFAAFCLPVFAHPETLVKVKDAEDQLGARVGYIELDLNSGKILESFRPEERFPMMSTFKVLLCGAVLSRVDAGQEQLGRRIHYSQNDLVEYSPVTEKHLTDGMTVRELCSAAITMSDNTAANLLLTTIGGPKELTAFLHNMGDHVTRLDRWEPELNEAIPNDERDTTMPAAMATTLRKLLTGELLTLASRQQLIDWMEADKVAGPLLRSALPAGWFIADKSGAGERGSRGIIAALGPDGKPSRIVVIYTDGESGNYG

[18] = target: T3, Beta Lactamase (Pseudomonas aeruginosa, UniProt Q932Y6); experiment: VIM-2 metallo-beta-lactamase inhibitor potency, dose response, biochemical, epi-absorbance readout, selective inhibitors (AID 1919)
T3 sequence (Q932Y6 whole entry): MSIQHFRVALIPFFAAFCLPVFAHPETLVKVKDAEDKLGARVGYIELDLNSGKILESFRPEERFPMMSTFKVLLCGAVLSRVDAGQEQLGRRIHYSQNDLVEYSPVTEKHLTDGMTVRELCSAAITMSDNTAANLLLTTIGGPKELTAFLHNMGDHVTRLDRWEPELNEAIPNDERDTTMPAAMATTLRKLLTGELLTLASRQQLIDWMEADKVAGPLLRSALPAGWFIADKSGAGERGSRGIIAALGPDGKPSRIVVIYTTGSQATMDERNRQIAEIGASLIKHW

[19] = target: T3, Beta Lactamase; experiment: VIM-2 inhibitor FRET-based artefact check, dose response, artefact control for selective VIM-2 inhibitor project, biochemical, FRET readout, CCF2 substrate (AID 1926)
[20] = target: T2, Beta-lactamase; experiment: IMP-1 metallo-beta-lactamase inhibitors, dose response, selectivity assay for VIM-2 inhibitor project, biochemical, epi-absorbance (AID 1920)
[21] = A549 cell cytotoxicity, dose response, cytotoxicity control, plate reader, cherry-pick, antagonist series (AID 743412); format: functional, cell-based
[22] = Luminescence Cell-Based Dose Response HTS to Identify Inhibitors of 5'UTR Stem-Loop Driven Prion Protein mRNA Translation in H4 Neuroglioblastoma Cells. [Related pubchem assays: 1827 (Project Summary), 1813 (Primary HTS)]; format: functional
[23] = cells; format: functional, cell-based
[24] = luciferase reporter signal reduction – luminescence, H4-C neuroglioblastoma cells, dose response (AID 2458); format: functional, cell-based;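 also: H4 neuroglioblastoma cells stably carrying a luciferase reporter gene fusion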
[25] = inhibitors of SNCA 5'UTR-driven translation, confirmation, luminescence, H4 neuroglioblastoma cells, dose confirmation (AID 2454); format: functional, cell-based;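 also: H4 neuroglioblastoma cells carrying an alpha-synuclein 5'UTR luciferase reporter; potency for inhibition of the luciferase signal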
[26] = HepG2 cell cytotoxicity, dose response, cytotoxicity control, plate reader, cherry-pick, antagonist series (AID 743416); format: functional, cell-based
[27] = LGR2 antagonists, dose response, cell-based, HEK293, CRE-luciferase reporter, cherry pick, set 2 (AID 743343); format: functional;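 also: transfected cells were stimulated with diluted bursicon conditioned medium after compound addition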
[28] = inhibitors of SNCA 5'UTR-driven reporter translation, confirmation, H4 neuroglioma cells, luminescence (AID 1988); format: functional, cell-based
[29] = target: Photoreceptor-specific nuclear receptor (Homo sapiens, UniProt Q9Y5X4); format: functional, cell-based;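 also: CHO-S cells with Gal4-NCOR and VP16-NR2E3 two-hybrid luciferase reporter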
Chain of Photoreceptor-specific nuclear receptor (Q9Y5X4 whole entry, the tested form may be a part): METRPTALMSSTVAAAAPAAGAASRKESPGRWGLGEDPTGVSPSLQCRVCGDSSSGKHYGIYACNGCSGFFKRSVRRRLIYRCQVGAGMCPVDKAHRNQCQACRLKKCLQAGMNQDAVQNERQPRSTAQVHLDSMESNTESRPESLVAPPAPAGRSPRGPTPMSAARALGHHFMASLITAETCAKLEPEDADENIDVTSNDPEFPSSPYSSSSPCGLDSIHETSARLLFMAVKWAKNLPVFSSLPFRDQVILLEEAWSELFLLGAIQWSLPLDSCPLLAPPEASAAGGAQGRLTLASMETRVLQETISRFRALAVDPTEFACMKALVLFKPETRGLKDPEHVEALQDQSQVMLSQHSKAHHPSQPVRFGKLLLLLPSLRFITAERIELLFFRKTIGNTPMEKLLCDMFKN

[30] = HEK293 cell cytotoxicity, dose response, cytotoxicity control, plate reader, cherry-picked samples (AID 743446); format: functional, cell-based
[31] = MC4R antagonists, dose response, counter-screen for LGR2 antagonist project, cell-based, plate reader, cherry pick (AID 743444); format: functional;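 also: transfected HEK 293 cells stimulated with alpha-MSH peptide; potency of inhibitors of the alpha-MSH evoked signal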
[32] = target: T4, Heat shock factor protein 1 (Mus musculus, UniProt P38532); experiment: inhibition of MG132-induced HSE-luciferase signal, confirmation, cell-based, NIH3T3, luminescence, dose retest (AID 2382); format: functional;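 also: NIH3T3 fibroblasts with HSF1-driven luciferase reporter stressed by proteasome inhibitor MG132; luminescence from HSF1-driven luciferase expression after 8 hours of MG132 stress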
T4 sequence (P38532 whole entry): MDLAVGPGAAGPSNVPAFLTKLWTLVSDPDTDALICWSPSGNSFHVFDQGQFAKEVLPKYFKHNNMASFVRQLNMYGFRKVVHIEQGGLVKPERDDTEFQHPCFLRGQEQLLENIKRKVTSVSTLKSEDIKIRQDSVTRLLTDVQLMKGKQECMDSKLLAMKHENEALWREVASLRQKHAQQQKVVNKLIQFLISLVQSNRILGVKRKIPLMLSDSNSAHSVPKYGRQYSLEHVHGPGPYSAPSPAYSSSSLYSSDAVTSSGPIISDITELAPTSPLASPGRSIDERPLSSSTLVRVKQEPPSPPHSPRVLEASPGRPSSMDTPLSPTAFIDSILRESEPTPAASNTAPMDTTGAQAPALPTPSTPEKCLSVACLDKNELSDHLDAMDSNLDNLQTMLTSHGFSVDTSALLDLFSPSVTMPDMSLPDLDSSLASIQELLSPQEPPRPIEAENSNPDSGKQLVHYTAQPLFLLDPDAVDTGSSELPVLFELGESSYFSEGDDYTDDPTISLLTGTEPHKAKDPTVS

[33] = target: T5, Sentrin-specific protease 1 (Homo sapiens, UniProt Q9P0U3); experiment: Dose response confirmation of small molecule inhibitors of the catalytic domain of the SUMO protease, SENP1 in a FRET assay.; format: functional; settings: read-out: IC50_Mean
T5 sequence (Q9P0U3 whole entry, the tested form may be a part): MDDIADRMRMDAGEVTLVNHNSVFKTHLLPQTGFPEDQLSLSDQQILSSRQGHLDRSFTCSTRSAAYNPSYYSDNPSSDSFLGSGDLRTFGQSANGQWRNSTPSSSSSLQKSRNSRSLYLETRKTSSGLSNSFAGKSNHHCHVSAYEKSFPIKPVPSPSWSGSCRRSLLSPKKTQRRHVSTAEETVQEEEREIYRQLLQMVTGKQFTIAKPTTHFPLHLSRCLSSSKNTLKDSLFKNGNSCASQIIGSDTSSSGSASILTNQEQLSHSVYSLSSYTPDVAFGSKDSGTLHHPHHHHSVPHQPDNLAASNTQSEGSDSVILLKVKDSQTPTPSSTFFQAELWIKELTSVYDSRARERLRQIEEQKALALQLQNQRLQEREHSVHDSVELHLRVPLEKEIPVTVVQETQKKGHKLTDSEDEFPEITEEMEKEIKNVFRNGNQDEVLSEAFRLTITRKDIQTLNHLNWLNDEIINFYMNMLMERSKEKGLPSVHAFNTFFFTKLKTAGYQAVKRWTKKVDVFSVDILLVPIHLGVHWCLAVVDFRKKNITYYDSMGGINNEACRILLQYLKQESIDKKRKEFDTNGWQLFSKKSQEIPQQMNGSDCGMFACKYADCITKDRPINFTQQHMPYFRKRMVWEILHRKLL

[34] = HEp-2 cell cytotoxicity, dose response, cytotoxicity control for RSV inhibitor project, HTS (AID 2410); format: functional; settings: human respiratory syncytial virus
[35] = target: T5, Sentrin-specific protease 1; experiment: potency of human SENP1 inhibitors, dose response, biochemical, kinetic FRET (AID 651697); format: functional; settings: read-out: IC50_Mean
[36] = miR-122 activators in hepatoma reporter cells, dose response, cell-based, Huh7 psiCHECK-miR122, Renilla luciferase, cherry-picked (AID 651956); format: functional;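 also: huh7 hepatoma cells stably carrying a psiCHECK-2 miR-122 sensor plasmid; renilla luciferase signal reporting endogenous miR-122 activity after 48 h compound exposure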
[37] = target: T6, Rac GTPase-activating protein 1 (Homo sapiens, UniProt Q9H0H5); experiment: MgcRacGAP GTPase-activating activity inhibitors, confirmation, biochemical, ADP Hunter fluorescence, primary and confirmatory (AID 624330); format: functional
T6 sequence (Q9H0H5 whole entry): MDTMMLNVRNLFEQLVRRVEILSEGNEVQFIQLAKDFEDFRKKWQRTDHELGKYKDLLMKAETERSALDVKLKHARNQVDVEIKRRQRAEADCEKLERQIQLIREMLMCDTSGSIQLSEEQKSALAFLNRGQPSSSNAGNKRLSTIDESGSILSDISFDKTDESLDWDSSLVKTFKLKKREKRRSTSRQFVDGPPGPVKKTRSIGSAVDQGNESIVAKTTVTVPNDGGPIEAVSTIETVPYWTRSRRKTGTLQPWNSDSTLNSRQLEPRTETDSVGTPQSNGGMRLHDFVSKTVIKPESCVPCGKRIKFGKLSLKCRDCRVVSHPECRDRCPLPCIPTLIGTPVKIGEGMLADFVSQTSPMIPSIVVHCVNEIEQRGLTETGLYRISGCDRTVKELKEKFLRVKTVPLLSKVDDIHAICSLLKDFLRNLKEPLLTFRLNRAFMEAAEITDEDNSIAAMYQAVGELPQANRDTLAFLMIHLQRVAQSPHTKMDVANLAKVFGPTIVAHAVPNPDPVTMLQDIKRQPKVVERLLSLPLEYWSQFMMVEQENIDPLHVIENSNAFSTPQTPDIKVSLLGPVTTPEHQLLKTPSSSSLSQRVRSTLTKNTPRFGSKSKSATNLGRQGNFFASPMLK

[38] = HeLa cell cytotoxicity, dose response, cytotoxicity control for MgcRacGAP inhibitor project (AID 624300); format: functional
[39] = target: T7, Caspase-6 (Homo sapiens, UniProt P55212); experiment: human caspase-6 inhibitors, dose response, biochemical, VEID-R110 fluorescence, cherry-pick (AID 720632)
T7 sequence (P55212 whole entry): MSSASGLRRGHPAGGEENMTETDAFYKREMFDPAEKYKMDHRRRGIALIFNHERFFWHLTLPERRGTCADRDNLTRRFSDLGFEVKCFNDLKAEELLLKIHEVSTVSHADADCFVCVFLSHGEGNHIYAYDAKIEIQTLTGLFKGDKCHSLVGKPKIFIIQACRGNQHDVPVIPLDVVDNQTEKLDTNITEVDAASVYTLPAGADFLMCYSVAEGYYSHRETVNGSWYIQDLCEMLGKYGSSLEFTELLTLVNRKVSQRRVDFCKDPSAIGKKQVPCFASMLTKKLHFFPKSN

[40] = target: T8, Caspase-3 (Homo sapiens, UniProt P42574); experiment: Dose-response confirmation of uHTS inhibitor hits of Sentrin-Specific Protease 8 in a Caspase-3 Fluorescence assay.; format: functional
T8 sequence (P42574 whole entry): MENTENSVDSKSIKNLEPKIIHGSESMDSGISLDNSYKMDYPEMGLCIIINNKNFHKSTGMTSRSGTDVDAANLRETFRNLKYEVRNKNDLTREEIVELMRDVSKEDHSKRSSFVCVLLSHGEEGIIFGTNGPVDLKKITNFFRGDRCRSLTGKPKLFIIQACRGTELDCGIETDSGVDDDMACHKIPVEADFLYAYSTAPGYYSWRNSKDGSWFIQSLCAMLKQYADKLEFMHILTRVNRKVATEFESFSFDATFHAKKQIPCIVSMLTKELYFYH

[41] = target: T9, Sentrin-specific protease 8 (Homo sapiens, UniProt Q96LD8); format: functional
T9 sequence (Q96LD8 whole entry): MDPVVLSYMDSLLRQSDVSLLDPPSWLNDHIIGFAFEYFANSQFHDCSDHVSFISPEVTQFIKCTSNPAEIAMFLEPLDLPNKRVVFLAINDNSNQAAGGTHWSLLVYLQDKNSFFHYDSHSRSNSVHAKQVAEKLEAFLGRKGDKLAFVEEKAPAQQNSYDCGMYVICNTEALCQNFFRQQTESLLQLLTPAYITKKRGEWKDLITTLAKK

[42] = target: T9, Sentrin-specific protease 8; format: functional; remark: listed apart in the source

Structure (SMILES): CC1=CC(C)(C)Nc2ccc(OC(=O)CN3C(=O)CCC3=O)cc21
- IC50 [1]: 9.33 µM (active)
- EC50 [2]: 0.79 µM (active)
- EC50 [3]: 2.93 µM (active)
- EC50 [4]: 5.71 µM (active)
- IC50 [5]: 48.4 µM (inactive)
- EC50 [6]: 8.86 µM (active)
- AC50 [7]: 2.79 µM (active)
- IC50 [8]: 54 µM (inactive)
- EC50 [9]: 7.45 µM (active)
- EC50 [10]: > 50 µM (not active)
- EC50 [11]: 8.75 µM (active)
- EC50 [12]: 8.84 µM (active)

Structure (SMILES): O=C(NCCCCc1ccccc1)Nc1cccc(F)c1
- IC50 [13]: 15.5 µM (inactive)
- IC50 [14]: 11.9 µM (inactive)
- IC50 [15]: 83.3 µM (inactive)

Structure (SMILES): O=C(C1=C(O)C(=O)N(Cc2cccnc2)C1c1ccccn1)c1ccccc1 (configuration not stated)
- IC50 [16]: > 59.6 µM (inactive)
- IC50 [17]: > 59.6 µM (inactive)
- IC50 [18]: 5 µM (active)
- IC50 [19]: 2.17 µM (active)
- IC50 [20]: > 59.6 µM (inactive)

Structure (SMILES): Cc1cc(C(=O)Nc2ccc(Cl)cc2)c(C)n1-c1ccccc1
- AC50 [21]: > 52 µM (inactive)
- EC50 [22]: 8.36 µM (active)
- EC50 [23]: 1.43 µM (active)
- EC50 [24]: 0.409 µM (active)
- EC50 [25]: 0.149 µM (active)
- AC50 [26]: > 52 µM (inactive)
- AC50 [27]: < 0.068 µM (active)
- EC50 [28]: < 0.1 µM (active)
- IC50 [29]: 0.017 µM (active)
- AC50 [30]: > 52 µM (inactive)
- AC50 [31]: < 0.068 µM (active)
- EC50 [32]: < 0.16 µM (active)

Structure (SMILES): COc1ccc(-c2ccc3c(c2)S(=O)(=O)c2cccc(C(=O)NCCOc4ccccc4)c2C3=O)cc1OC
- IC50 [33]: 8.3 µM (active)
- CC50 [34]: 46.1 µM (active)
- IC50 [35]: 10.5 µM (active)

Structure (SMILES): CC(C)(C)c1ccc(S(=O)(=O)NCCc2ccncc2)cc1
- AC50 [36]: 25 µM (active)

Structure (SMILES): COc1cc(/C=N/NC(=O)NC23CC4CC(CC(C4)C2)C3)ccc1O
- IC50 [37]: 54.5 µM (active)
- CC50 [38]: 100 µM (active)

Structure (SMILES): O=C(COC(=O)c1ccc([N+](=O)[O-])o1)NCc1ccc(F)cc1
- AC50 [39]: 40.7 µM (active)
- IC50 [40]: 99.7 µM (inactive)
- IC50 [41]: 6.4 µM (active)
- IC50 [42]: 11.7 µM (active)
